Source: patent US8916183B2, “Pesticidal compositions and processes related thereto” (priority 2012, dated 2014)
Where two headings read alike, the source gives them in different places.

Legend:
[1] = system: Corn Earworm (CEW) (Helicoverpa zea); experiment: Bioassay on corn earworm (CEW), 128-well diet tray assay; format: in vivo; conditions: Helicoverpa zea, read-out: % Mortality CEW 50 μg/cm^2
Experimental: (§1) Certain molecules disclosed in this document were tested against BAW and CEW using procedures described in the following examples. In the reporting of the results, the “BAW & CEW Rating Table” was used (See Table Section).
Bioassays on CEW (Helicoverpa zea)
Bioassays on CEW were conducted using a 128-well diet tray assay. […] Trays were covered with a clear self-adhesive cover and held at 25° C., 14:10 light-dark for five to seven days. Percent mortality was recorded for the larvae in each well; activity in the eight wells was then averaged. The results are indicated in the table entitled “Table 5: Biological Results” (See Table Section).

[2] = system: Beet Armyworm (BAW) (Spodoptera exigua); experiment: Bioassay on beet armyworm (BAW), 128-well diet tray assay; format: in vivo; conditions: Spodoptera exigua, read-out: % Mortality BAW 50 μg/cm^2
Experimental: as §1
Bioassays on BAW (Spodoptera exigua)
Bioassays on BAW were conducted using a 128-well diet tray assay. […] Trays were covered with a clear self-adhesive cover and held at 25° C., 14:10 light-dark for five to seven days. Percent mortality was recorded for the larvae in each well; activity in the eight wells was then averaged. The results are indicated in the table entitled “Table 5: Biological Results” (See Table Section).

Row | Structure (SMILES) | mortality at 50 µg/cm2 ([1]; corn earworm, 50 μg/cm^2) [%] | mortality at 50 µg/cm2 ([2]; beet armyworm, 50 μg/cm^2) [%] | mortality at 50 µg/cm2 [1] [%] | mortality at 50 µg/cm2 [2] [%]
1 | CC1CS/C(=N\N=C\c2ccc(-c3ncn(-c4ccc(OC(F)(F)F)cc4)n3)cc2)N(c2c(Cl)cccc2C(F)(F)F)C1 (stereo not drawn) [Compound 215C] | 50 to 100 | 50 to 100 | – | –
2 | CCOC(=O)c1ccc(N2CCCS/C2=N\N=C\c2ccc(-c3ncn(-c4ccc(OC(F)(F)F)cc4)n3)cc2)cc1 [Compound 207C] | 0 | 0 | – | –
3 | CC1CS/C(=N\N=C\c2ccc(-c3ncn(-c4ccc(OC(F)(F)F)cc4)n3)cc2)N1c1ccccc1OC(F)F (stereo not drawn) [Compound 164C] | 50 to 100 | 50 to 100 | – | –
4 | Cc1cccc(C)c1N1C(=O)CS/C1=N\N=C\c1ccc(-c2ccn(-c3ccc(OC(F)(F)F)cc3)n2)cc1 [Compound 103C] | 50 to 100 | 50 to 100 | – | –
5 | FC(F)Oc1ccccc1N1CCS/C1=N\N=C\c1ccc(-c2ncn(-c3ccc(OC(F)(F)F)cc3)n2)cc1 [Compound 152C] | 50 to 100 | 50 to 100 | – | –
6 | Cc1cs/c(=N\N=C\c2ccc(-c3ncn(-c4ccc(OC(F)(F)F)cc4)n3)cc2)n1-c1ccccc1C(C)C [Compound 176C] | 50 to 100 | 50 to 100 | – | –
7 | Cc1cs/c(=N\N=C\c2ccc(-c3ncn(-c4ccc(OC(F)(F)F)cc4)n3)cc2)n1-c1c(Cl)cccc1C(F)(F)F [Compound 169C] | 50 to 100 | 50 to 100 | – | –
8 | CC1S/C(=N\N=C\c2ccc(-c3ncn(-c4ccc(OC(F)(F)F)cc4)n3)cc2)N(c2c(Cl)cccc2Cl)C1=O (stereo not drawn) [Compound 129C] | 50 to 100 | 50 to 100 | – | –
9 | COc1ccc(N2/C(=N/N=C/c3ccc(-c4ncn(-c5ccc(OC(F)(F)F)cc5)n4)cc3)SCCC2C)c(C)c1 (stereo not drawn) [Compound 219C] | 50 to 100 | 50 to 100 | – | –
10 | Cc1cc(C)c(N2/C(=N/N=C/c3ccc(-c4ncn(-c5ccc(OC(F)(F)F)cc5)n4)cc3)SCC2C)c(C)c1 (stereo not drawn) [Compound 161C] | 50 to 100 | 50 to 100 | – | –
11 | Cc1cc(C)c(N2/C(=N/N=C/c3ccc(-c4ncn(-c5ccc(OC(F)(F)F)cc5)n4)cc3)SCCC2C)c(C)c1 (stereo not drawn) [Compound 218C] | 50 to 100 | 50 to 100 | – | –
12 | O=C1CCS/C(=N\N=C\c2ccc(-c3ncn(-c4ccc(OC(F)(F)F)cc4)n3)cc2)N1c1ccccc1OC(F)F [Compound 233C] | 50 to 100 | 50 to 100 | – | –
13 | COc1ccc(N2C(=O)CS/C2=N\N=C\c2ccc(-c3ncn(-c4ccc(OC(F)(F)F)cc4)n3)cc2)cc1 [Compound 115C] | 0 | 0 to 50 | – | –
14 | CC1S/C(=N\N=C\c2ccc(-c3ncn(-c4ccc(OC(F)(F)F)cc4)n3)cc2)N(c2ccccc2C2CC2)C1=O (stereo not drawn) [Compound 127C] | 50 to 100 | 50 to 100 | – | –
15 | O=C1CCS/C(=N\N=C\c2ccc(-c3ncn(-c4ccc(OC(F)(F)F)cc4)n3)cc2)N1c1c(Cl)cccc1C(F)(F)F [Compound 228C] | 50 to 100 | 50 to 100 | – | –
16 | CC1CS/C(=N\N=C\c2ccc(-c3ncn(-c4ccc(OC(F)(F)F)cc4)n3)cc2)N(c2ccccc2OC(F)(F)F)C1 (stereo not drawn) [Compound 214C] | 50 to 100 | 50 to 100 | – | –
17 | COc1cc(C)c(/N=C(\N/N=C/c2ccc(-c3ncn(-c4ccc(C(F)(F)F)cc4)n3)cc2)SCOC(=O)CNC(=O)OCc2ccccc2)c(C)c1 [Compound 45C] | – | – | 50 to 100 | 50 to 100
18 | CCC(C)c1ccccc1N1/C(=N/N=C/c2ccc(-c3ncn(-c4ccc(OC(F)(F)F)cc4)n3)cc2)SCCC1C (stereo not drawn) [Compound 220C] | 50 to 100 | 50 to 100 | – | –
19 | O=C1CS/C(=N\N=C\c2ccc(-c3ncn(-c4ccc(OC(F)(F)F)cc4)n3)cc2)N1c1ccccc1OC(F)F [Compound 126C] | 50 to 100 | 50 to 100 | – | –
20 | COC(=O)C1CC(c2ccc(/C=N/N=C3\SCC(=O)N3c3c(Cl)cccc3Cl)cc2)=NN1c1ccc(OC(F)(F)F)cc1 (stereo not drawn) [Compound 109C] | 50 to 100 | 50 to 100 | – | –
21 | Cc1cccc(C)c1N1C(=O)CS/C1=N\N=C\c1ccc(-c2ncn(-c3ccc(OC(F)(F)C(F)(F)F)cc3)n2)cc1 [Compound 100C] | 50 to 100 | 50 to 100 | – | –
22 | CC1CS/C(=N\N=C\c2ccc(-c3ncn(-c4ccc(OC(F)(F)F)cc4)n3)cc2)N1c1c(F)cccc1F (stereo not drawn) [Compound 159C] | 50 to 100 | 50 to 100 | – | –
23 | Cc1cccc(C)c1/N=C(/N/N=C/c1ccc(-c2ncn(-c3ccc(OC(F)(F)F)cc3)n2)cc1)SCC(=O)NCCCN(C)C(=O)OC(C)(C)C [Compound 61C] | – | – | 50 to 100 | 50 to 100

Row | Structure (SMILES) | mortality at 50 µg/cm2 ([1]; corn earworm, 50 μg/cm^2) [%] | mortality at 50 µg/cm2 ([2]; beet armyworm, 50 μg/cm^2) [%] | mortality at 50 µg/cm2 [1] [%] | mortality at 50 µg/cm2 [2] [%]
24 | CC(C)c1ccccc1N1CCS/C1=N\N=C\c1ccc(-c2ncn(-c3ccc(C(F)(F)F)cc3)n2)cc1 [Compound 134C] | 50 to 100 | 50 to 100 | – | –
25 | Fc1cccc(Cl)c1N1CCS/C1=N\N=C\c1ccc(-c2ncn(-c3ccc(OC(F)(F)F)cc3)n2)cc1 [Compound 143C] | 50 to 100 | 50 to 100 | – | –
26 | CCC(C)c1ccccc1N1/C(=N/N=C/c2ccc(-c3ncn(-c4ccc(OC(F)(F)F)cc4)n3)cc2)SCC1(O)C(F)(F)F (stereo not drawn) [Compound 247C] | 50 to 100 | 50 to 100 | – | –
27 | CCC(C)c1ccccc1N1/C(=N/N=C/c2ccc(-c3ncn(-c4ccc(OC(F)(F)F)cc4)n3)cc2)SCC1C (stereo not drawn) [Compound 163C] | 50 to 100 | 50 to 100 | – | –
28 | C/C(=N\N=C1/SCC(=O)N1c1ccccc1CC(C)C)c1ccc(-c2ncn(-c3ccc(OC(F)(F)F)cc3)n2)cc1 [Compound 122C] | 50 to 100 | 50 to 100 | – | –
29 | COc1cc(C)c(N2C(=O)CSC2=NN=Cc2ccc(-c3ncn(-c4ccc(OC(F)(F)F)cc4)n3)cc2)c(C)c1 (stereo in doubt) [Compound 69C, (Z)-3-(4-methoxy-2,6-dimethylphenyl)-2-((E)-(4-(1-(4-(trifluoromethoxy)phenyl)-1H-1,2,4-triazol-3-yl)benzylidene)hydrazono)thiazolidin-4-one] | 50 to 100 | 50 to 100 | – | –
30 | FC(F)(F)Oc1ccc(-n2cnc(-c3ccc(/C=N/N=C4\SCCN4c4ccccc4-c4ccccc4)cc3)n2)cc1 [Compound 144C] | 50 to 100 | 50 to 100 | – | –
31 | O=C1CS/C(=N\N=C\c2ccc(-c3ncn(-c4ccc(OC(F)(F)F)cc4)n3)cc2)N1c1ccccc1OC(F)(F)F [Compound 124C] | 50 to 100 | 50 to 100 | – | –
32 | CC1CCS/C(=N\N=C\c2ccc(-c3ncn(-c4ccc(OC(F)(F)F)cc4)n3)cc2)N1c1ccccc1C(C)(C)C (stereo not drawn) [Compound 222C] | 50 to 100 | 50 to 100 | – | –
33 | CC(C)c1ccccc1N1C(=O)CS/C1=N\N=C\c1ccc(-c2ncn(-c3ccc(C(F)(F)F)cc3)n2)cc1 [Compound 120C] | 50 to 100 | 50 to 100 | – | –
34 | Cc1cccc(Cl)c1N1C(=O)CCS/C1=N\N=C\c1ccc(-c2ncn(-c3ccc(OC(F)(F)F)cc3)n2)cc1 [Compound 227C] | 50 to 100 | 50 to 100 | – | –
35 | FC(F)(F)Oc1ccc(-n2cnc(-c3ccc(/C=N/N=C4\SCCCN4c4ccccc4OC(F)(F)F)cc3)n2)cc1 [Compound 199C] | 50 to 100 | 50 to 100 | – | –
36 | CCC1CS/C(=N\N=C\c2ccc(-c3ncn(-c4ccc(OC(F)(F)F)cc4)n3)cc2)N1c1ccccc1C (stereo not drawn) [Compound 166C] | 50 to 100 | 50 to 100 | – | –
37 | COc1cc(C)c(/N=C(/N/N=C/c2ccc(-c3ncn(-c4ccc(OC(F)(F)F)cc4)n3)cc2)SCC(=O)O)c(C)c1 [Compound 48C] | 50 to 100 | 50 to 100 | – | –
38 | Cc1cs/c(=N\N=C\c2ccc(-c3ncn(-c4ccc(OC(F)(F)F)cc4)n3)cc2)n1-c1ccccc1OC(F)(F)F [Compound 170C] | 50 to 100 | 50 to 100 | – | –
39 | CC(C)(C)c1ccccc1N1C(=O)CS/C1=N\N=C\c1ccc(-c2ncn(-c3ccc(OC(F)(F)F)cc3)n2)cc1 [Compound 125C] | 50 to 100 | 50 to 100 | – | –
40 | CC1CCS/C(=N\N=C\c2ccc(-c3ncn(-c4ccc(OC(F)(F)F)cc4)n3)cc2)N1c1c(Cl)cccc1C(F)(F)F (stereo not drawn) [Compound 217C] | 50 to 100 | 50 to 100 | – | –
41 | CCOC(=O)c1ccccc1N1C(=O)CS/C1=N\N=C\c1ccc(-c2ncn(-c3ccc(OC(F)(F)F)cc3)n2)cc1 [Compound 107C] | 0 | 0 | – | –
42 | CC(F)(F)Oc1ccccc1N1C(=O)CCS/C1=N\N=C\c1ccc(-c2ncn(-c3ccc(OC(F)(F)F)cc3)n2)cc1 [Compound 229C] | 50 to 100 | 50 to 100 | – | –
43 | CC1(O)CS/C(=N\N=C\c2ccc(-c3ncn(-c4ccc(OC(F)(F)F)cc4)n3)cc2)N1c1ccccc1C1CCCC1 (stereo not drawn) [Compound 249C] | 50 to 100 | 50 to 100 | – | –
44 | COc1ccc(N2/C(=N/N=C/c3ccc(-c4ncn(-c5ccc(OC(F)(F)F)cc5)n4)cc3)SCC2C)c(C)c1 (stereo not drawn) [Compound 162C] | 50 to 100 | 50 to 100 | – | –
45 | O=C1CCS/C(=N\N=C\c2ccc(-c3ncn(-c4ccc(OC(F)(F)F)cc4)n3)cc2)N1c1c(F)cccc1F [Compound 226C] | 50 to 100 | 50 to 100 | – | –
